Where a name gives a salt, the structure may show the parent alone. Read-outs that look alike come from different tables or passages of the source.
Test system: NB12 tumor-initiating cells
Assay: IC50 determination, Alamar Blue cell survival/growth assay
Format: cell-based, human
Procedure: FIG. 4A-4E, according to one embodiment of the invention, presents the IC50 values that were determined for the 64 selected candidate compounds. […] Tumor-initiating cells and normal cells were treated with 10 serial dilutions of compounds (5 μM to 9 nM). […] (FS90=normal cells; NB12=tumor-initiating cells).
FIG. 6A-6FF, according to one embodiment of the invention, presents IC50 values for 32 selected compounds from the LOPAC and Prestwick collections. Tumor-initiating cells (NB12) and normal cells (FS90) were treated with 10 serial dilutions of compounds ranging from 5 μM to 9 nM. Cell survival/growth was assayed using Alamar Blue and the percentage of control Alamar Blue signal was plotted versus log[compound] nM. IC50 values for NB12 are given above each plot.
FIG. 7A-7FF, according to one embodiment of the invention, represents IC50 values determined for 32 selected compounds from the LOPAC, Prestwick, and Spectrum collections. Tumor-initiating cells (NB12) and normal cells (FS90) were treated with 10 serial dilutions of compounds ranging from 5 μM to 9 nM. Cell survival/growth was assayed using Alamar Blue and the percentage of control Alamar Blue signal was plotted versus log[compound] nM (FS90 in dashed line, NB12 in bolded line). IC50 values for NB12 and FS90 are given beside each plot.
To identify compounds that suppress the growth and survival of neuroblastoma (NB) tumor-initiating cells and not nontransformed normal cells (SKPs), a cell-based assay was established and used in which NB tumor-initiating cells from a multiple relapse NB patient (NB12, passage 6-17) and normal SKPs (FS90, passage 2-5) were tested in parallel to detect specific alterations of cell viability/proliferation. For each cell type, cells were passaged 5 days prior to screening. Three thousand (3000) cells in 100 µL SKPs growth media (B27, bFGF, EGF, P/S, fungizone in DMEM:F12 with 50% hFS conditioned media) were robotically plated in uncoated 96 well plates and treated with test compound for 30 hours, prior to a 24 hour incubation in the presence of Alamar Blue and subsequent fluorometric reading.
Thirty-two (32) compounds were selected for IC50 determinations using FS90, FS105, and NB12. IC50 for the remaining compounds of interest will be tested at a later date (in combination with hits from additional libraries).

[1] = Homo sapiens, NB12, 10 serial dilutions 5 μM to 9 nM, Alamar Blue, read-out: NB12 IC50
[2] = NB12, 10 serial dilutions 5 μM to 9 nM, Alamar Blue, read-out: NB12 IC50
[3] = Homo sapiens, read-out: NB12 IC50 (nM)

| Molecule | IC50 [1] | further results |
| --- | --- | --- |
| Cc1cc(C2CCCCC2)n(O)c(=O)c1 [CICLOPIROX OLAMINE] | 2050 nM |  |
| CO[C@H]1C=C[C@@]23c4cc5c(cc4CN(C[C@@H]2O)[C@H]3C1)OCO5 [CRINAMINE] |  | IC50 [2]: 1740 nM |
| CO[C@H]1[C@H](O)[C@H](O[C@H]2CC[C@@]3(C=O)[C@H](CC[C@@H]4[C@@H]3CC[C@]3(C)[C@@H](C5=CC(=O)OC5)CC[C@]43O)C2)O[C@@H](C)[C@@H]1O [PERUVOSIDE] | 222 nM |  |
| C[C@H]1O[C@@H](O[C@H]2[C@@H](O)C[C@H](O[C@H]3[C@@H](O)C[C@H](O[C@H]4CC[C@@]5(C)[C@H](CC[C@@H]6[C@@H]5C[C@@H](O)[C@]5(C)[C@@H](C7=CC(=O)OC7)CC[C@]65O)C4)O[C@@H]3C)O[C@@H]2C)C[C@H](O)[C@@H]1O [Digoxin] |  | IC50 [3]: 542 nM |
| C[C@@H]1O[C@@H](O[C@H]2C[C@@H](O)[C@]3(CO)[C@H]4[C@H](O)C[C@]5(C)[C@@H]([C@@H]6COC(=O)C6)CC[C@]5(O)[C@@H]4CC[C@]3(O)C2)[C@H](O)[C@H](O)[C@H]1O [Dihydroouabain] |  | IC50 [2]: 1540 nM |
| CC(C)CCC[C@@H](C)[C@H]1CC[C@H]2[C@@H]3C[C@@H](O)[C@@]4(O)C[C@@H](O)CC[C@]4(C)[C@H]3CC[C@]12C [CHOLESTAN-3beta.5alpha.6beta-TRIOL] |  | IC50 [2]: 2410 nM |
| Dequalinium analog. C-14 linker |  | IC50 [2]: 1110 nM |
| C[C@@H]1O[C@@H](O[C@H]2C[C@@H](O)[C@]3(CO)[C@H]4[C@H](O)C[C@]5(C)[C@@H](C6=CC(=O)OC6)CC[C@]5(O)[C@@H]4CC[C@]3(O)C2)[C@H](O)[C@H](O)[C@H]1O [Ouabain] | 123 nM |  |
| COc1cc(NS(C)(=O)=O)ccc1Nc1c2ccccc2nc2ccccc12 [AMSACRINE HYDROCHLORIDE] | 1210 nM |  |
| Cc1cccc(CN2CCN(C(c3ccccc3)c3ccc(Cl)cc3)CC2)c1 (centres unmarked) [MECLIZINE HYDROCHLORIDE] | 2540 nM |  |
| N=c1ccn2c(n1)O[C@H]1[C@H](O)[C@@H](CO)O[C@H]12 [Ancitabine hydrochloride] | 520 nM |  |
| Vinblastine sulfate salt |  | IC50 [2]: 113 nM |
| COc1cc([C@@H]2c3cc4c(cc3[C@H](O)[C@H]3COC(=O)[C@H]23)OCO4)cc(OC)c1OC [Podophyllotoxin] | 135 nM |  |
| CC[C@@]1(O)C(=O)OCc2c1cc1n(c2=O)Cc2cc3ccccc3nc2-1 [Camptothecine (S.+)] |  | IC50 [2]: 183 nM |
| CCN(CC)Cc1cc(Nc2ccnc3cc(Cl)ccc23)ccc1O [Amodiaquin dihydrochloride dihydrate] | 790 nM |  |
| COc1cc([C@@H]2c3cc4c(cc3[C@@H](O[C@@H]3O[C@@H]5CO[C@@H](c6cccs6)O[C@H]5[C@H](O)[C@H]3O)[C@H]3COC(=O)[C@H]23)OCO4)cc(OC)c1O [TENIPOSIDE] | 706 nM |  |
| CS(=O)(=O)CCCCN=C=S [ERYSOLIN] | 3280 nM |  |
| C=C1C(=O)O[C@H]2C[C@@H]1C(OC(C)=O)C/C(C)=C/CC/C(C)=C/CC[C@@]2(C)O (some centres unmarked) [CRASSIN ACETATE] | 1950 nM |  |

| Molecule | IC50 [1] | further results |
| --- | --- | --- |
| CC[C@@]1(O)C[C@H](O[C@H]2C[C@H](N(C)C)[C@H](O)[C@H](C)O2)c2c(cc3c(c2O)C(=O)c2c(O)cccc2C3=O)[C@H]1C(=O)OC [AKLAVINE HYDROCHLORIDE] | 778 nM |  |
| CO[C@H]1C[C@H](O[C@H]2CC[C@]3(C)[C@H]4CC[C@]5(C)[C@@H](C6=CC(=O)OC6)CC[C@]5(O)[C@@H]4CC[C@]3(O)C2)O[C@H](C)[C@H]1O [PERIPLOCYMARIN] | 2700 nM |  |
| Cc1cc(N)c2ccccc2[n+]1CCCCCCCCCC[n+]1c(C)cc(N)c2ccccc21 [Dequalinium dichloride] | 3620 nM |  |
| C[n+]1cc2c3c(ccc2c2ccc4cc5c(cc4c21)OCO5)OCO3 [Sanguinarine chloride] |  | IC50 [3]: 1800 nM |
| CC[N+](CC)(CC)CCOc1ccc(/C=C/c2ccccc2)cc1 [MG 624] | 848 nM |  |
| COc1cc([C@@H]2c3cc4c(cc3[C@@H](O[C@@H]3O[C@@H]5CO[C@@H](C)O[C@H]5[C@H](O)[C@H]3O)[C@H]3COC(=O)[C@H]23)OCO4)cc(OC)c1O [Etoposide] | 694 nM |  |
| COc1cc([C@@H]2c3cc4c(c(O)c3C[C@H]3COC(=O)[C@@H]32)OCO4)cc(OC)c1OC [beta-PELTATIN] |  | IC50 [2]: 1950 nM |
| COc1ccc2c(c[n+](C)c3c4cc5c(cc4ccc23)OCO5)c1OC [Chelerythrine chloride] | 2550 nM |  |
| CC[C@]1(O)C[C@H]2CN(CCc3c([nH]c4ccccc34)[C@@](C(=O)OC)(c3cc4c(cc3OC)N(C=O)[C@H]3[C@@](O)(C(=O)OC)[C@H](OC(C)=O)[C@]5(CC)C=CCN6CC[C@]43[C@@H]65)C2)C1 [Vincristine sulfate] | 62 nM |  |
| CCN(CC)CCCC(C)Nc1c2ccc(Cl)cc2nc2ccc(OC)cc12 (centres unmarked) [Quinacrine dihydrochloride] | 2560 nM |  |
| CC(C)=CCC[C@]1(C)C=Cc2c(O)c3c(c(CC=C(C)C)c2O1)O[C@]12C(=C[C@@H]4C[C@H]1C(C)(C)O[C@@]2(C/C=C(/C)C(=O)O)C4=O)C3=O [GAMBOGIC ACID] | 1700 nM |  |
| O=C1c2c(O)ccc(O)c2C(=O)c2c(NCCNCCO)ccc(NCCNCCO)c21 [MITOXANTHRONE HYDROCHLORIDE] | 60.5 nM |  |
| CC(=O)[C@]1(O)Cc2c(O)c3c(c(O)c2[C@@H](O[C@H]2C[C@H](N)[C@H](O)[C@H](C)O2)C1)C(=O)c1ccccc1C3=O [Idarubicin] | 204 nM |  |
| Nc1nc(O)c2[nH]nnc2n1 [Azaguanine-8] |  | IC50 [2]: 331 nM |
| C[C@@H]1O[C@@H](O[C@H]2CC[C@]3(C=O)[C@H]4CC[C@]5(C)[C@@H](C6=CC(=O)OC6)CC[C@]5(O)[C@@H]4CC[C@]3(O)C2)[C@H](O)[C@H](O)[C@H]1O [CONVALLATOXIN] | 73.2 nM |  |
| CC(C)=CCCC1(C)C=Cc2c(O)c3c(c(CC=C(C)C)c2O1)OC12C(=CC4CC1C(C)(C)OC2(C/C=C(/C)C(=O)O)C4O)C3=O (centres unmarked) [DIHYD[…]] | 1690 nM |  |
| CC(C)/N=c1\cc2n(-c3ccc(Cl)cc3)c3ccccc3nc-2cc1Nc1ccc(Cl)cc1 [Clofazimine] | 1420 nM |  |

From patent US20090036387A1, “NOVEL CHEMICAL ENTITIES AFFECTING NEUROBLASTOMA TUMOR-INITIATING CELLS” (The Hospital for Sick Children, priority 2005, published 2009)
